Key:
Assay in all cases: relative viability (nuclei count vs DMSO), 5 days (fraction); higher = more cells survive
[1] = tested on: COR-L23
Procedure, shortened: (§1)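 Values are medians from duplicate plates. Each reflects relative viability, defined as the nuclei count of treated wells over that of vehicle wells. Lung cancer cell lines in 1536-well plates were pin-tool dosed one day after seeding with one drug alone or with a fixed anchor-drug dose plus five library-drug doses (not always all listed) in √10 steps, then fixed, stained and imaged at 4× after 5 days.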

[2] = tested on: NCI-H1993
Procedure, shortened: as §1

[3] = tested on: HOP-62
Procedure, shortened: as §1

[4] = tested on: ABC-1
Procedure, shortened: as §1

[5] = tested on: NCI-H3122
Procedure, shortened: as §1

[6] = tested on: EMC-BAC-2
Procedure, shortened: as §1

[7] = tested on: HARA
Procedure, shortened: as §1

[8] = tested on: NCI-H727
Procedure, shortened: as §1

[9] = tested on: NCI-H2228
Procedure, shortened: as §1

[10] = tested on: NCI-H1792
Procedure, shortened: as §1

[11] = tested on: PC-3 [JPC-3]
Procedure, shortened: as §1

[12] = tested on: NCI-H2009
Procedure, shortened: as §1

[13] = tested on: LU99A
Procedure, shortened: as §1

[14] = tested on: SK-LU-1
Procedure, shortened: as §1

[15] = tested on: NCI-H596
Procedure, shortened: as §1

[16] = tested on: A-427
Procedure, shortened: as §1

[17] = tested on: SW 1573
Procedure, shortened: as §1

[18] = tested on: LXF-289
Procedure, shortened: as §1

Question: How did the relative viability ([1]; first compound 0.04 µM) turn out when `Clc1ccc(Nc2nnc(Cc3ccncc3)c3ccccc23)cc1` [Vatalanib] + CC(C)C[C@H](NC(=O)[C@H](Cc1ccccc1)NC(=O)c1cnccn1)B(O)O [Bortezomib] (partner 0.002 µM) was run?
Answer: The relative viability was 1.1.

Question: And the relative viability ([1]; first compound 0.1265 µM)?
Answer: The relative viability was 0.934.

Question: What about the relative viability ([1]; first compound 0.4 µM) of the same compound?
Answer: Its relative viability is 1.01.

Question: What about the relative viability ([1]; first compound 1.265 µM) of the same compound?
Answer: The relative viability was 1.01.

Question: What about the relative viability ([1]; first compound 4 µM) of the same compound?
Answer: The relative viability was 0.942.

Question: What about the relative viability ([2]; first compound 0.04 µM) of the same compound?
Answer: The relative viability was 1.11.

Question: And the relative viability ([2]; first compound 0.1265 µM)?
Answer: Its relative viability is 1.05.

Question: And the relative viability ([2]; first compound 0.4 µM)?
Answer: Its relative viability is 1.02.

Question: What about the relative viability ([2]; first compound 1.265 µM) of the same compound?
Answer: Its relative viability is 1.01.

Question: What about the relative viability ([2]; first compound 4 µM) of the same compound?
Answer: The relative viability was 0.869.

Question: And the relative viability ([3]; first compound 0.04 µM)?
Answer: The relative viability was 0.977.

Question: What about the relative viability ([3]; first compound 0.4 µM) of the same compound?
Answer: The relative viability was 0.857.

Question: And the relative viability ([3]; first compound 1.265 µM)?
Answer: Its relative viability is 0.849.

Question: And the relative viability ([3]; first compound 4 µM)?
Answer: Its relative viability is 1.09.

Question: What about the relative viability ([4]; first compound 0.04 µM) of the same compound?
Answer: Its relative viability is 0.334.

Question: What about the relative viability ([4]; first compound 0.1265 µM) of the same compound?
Answer: The relative viability was 0.243.

Question: What about the relative viability ([4]; first compound 0.4 µM) of the same compound?
Answer: Its relative viability is 0.348.

Question: And the relative viability ([4]; first compound 1.265 µM)?
Answer: The relative viability was 0.357.

Question: And the relative viability ([4]; first compound 4 µM)?
Answer: The relative viability was 0.351.

Question: And the relative viability ([5]; first compound 0.04 µM)?
Answer: The relative viability was 1.01.

Question: And the relative viability ([5]; first compound 0.1265 µM)?
Answer: The relative viability was 1.06.

Question: And the relative viability ([5]; first compound 0.4 µM)?
Answer: The relative viability was 1.08.

Question: And the relative viability ([5]; first compound 1.265 µM)?
Answer: The relative viability was 1.07.

Question: And the relative viability ([5]; first compound 4 µM)?
Answer: Its relative viability is 1.01.

Question: What about the relative viability ([6]; first compound 0.04 µM) of the same compound?
Answer: The relative viability was 1.04.

Question: What about the relative viability ([6]; first compound 0.1265 µM) of the same compound?
Answer: Its relative viability is 1.09.

Question: And the relative viability ([6]; first compound 0.4 µM)?
Answer: The relative viability was 1.12.

Question: What about the relative viability ([6]; first compound 1.265 µM) of the same compound?
Answer: The relative viability was 1.01.

Question: And the relative viability ([6]; first compound 4 µM)?
Answer: The relative viability was 1.05.

Question: What about the relative viability ([7]; first compound 0.04 µM) of the same compound?
Answer: Its relative viability is 0.71.

Question: What about the relative viability ([7]; first compound 0.1265 µM) of the same compound?
Answer: The relative viability was 0.953.

Question: And the relative viability ([7]; first compound 0.4 µM)?
Answer: The relative viability was 1.23.

Question: What about the relative viability ([7]; first compound 1.265 µM) of the same compound?
Answer: Its relative viability is 1.12.

Question: What about the relative viability ([7]; first compound 4 µM) of the same compound?
Answer: Its relative viability is 1.06.

Question: And the relative viability ([8]; first compound 0.04 µM)?
Answer: Its relative viability is 0.908.

Question: And the relative viability ([8]; first compound 0.1265 µM)?
Answer: The relative viability was 0.776.

Question: What about the relative viability ([8]; first compound 0.4 µM) of the same compound?
Answer: The relative viability was 0.827.

Question: And the relative viability ([8]; first compound 1.265 µM)?
Answer: Its relative viability is 0.854.

Question: What about the relative viability ([8]; first compound 4 µM) of the same compound?
Answer: The relative viability was 0.706.

Question: What about the relative viability ([9]; first compound 0.04 µM) of the same compound?
Answer: The relative viability was 0.865.

Question: And the relative viability ([9]; first compound 0.1265 µM)?
Answer: The relative viability was 0.803.

Question: And the relative viability ([9]; first compound 0.4 µM)?
Answer: The relative viability was 0.94.

Question: And the relative viability ([9]; first compound 1.265 µM)?
Answer: The relative viability was 0.951.

Question: What about the relative viability ([9]; first compound 4 µM) of the same compound?
Answer: Its relative viability is 1.11.

Question: And the relative viability ([10]; first compound 0.04 µM)?
Answer: Its relative viability is 0.946.

Question: What about the relative viability ([10]; first compound 0.1265 µM) of the same compound?
Answer: Its relative viability is 0.9.

Question: And the relative viability ([10]; first compound 0.4 µM)?
Answer: The relative viability was 0.915.

Question: And the relative viability ([10]; first compound 1.265 µM)?
Answer: The relative viability was 0.921.

Question: And the relative viability ([10]; first compound 4 µM)?
Answer: The relative viability was 0.972.

Question: What about the relative viability ([11]; first compound 0.04 µM) of the same compound?
Answer: The relative viability was 0.785.

Question: What about the relative viability ([11]; first compound 0.1265 µM) of the same compound?
Answer: The relative viability was 0.828.

Question: And the relative viability ([11]; first compound 0.4 µM)?
Answer: Its relative viability is 0.82.

Question: What about the relative viability ([11]; first compound 1.265 µM) of the same compound?
Answer: Its relative viability is 0.856.

Question: And the relative viability ([11]; first compound 4 µM)?
Answer: The relative viability was 0.721.

Question: What about the relative viability ([12]; first compound 0.04 µM) of the same compound?
Answer: The relative viability was 1.19.

Question: And the relative viability ([12]; first compound 0.1265 µM)?
Answer: The relative viability was 0.891.

Question: And the relative viability ([12]; first compound 0.4 µM)?
Answer: Its relative viability is 1.14.

Question: What about the relative viability ([12]; first compound 1.265 µM) of the same compound?
Answer: The relative viability was 0.949.

Question: What about the relative viability ([12]; first compound 4 µM) of the same compound?
Answer: Its relative viability is 0.984.

Question: What about the relative viability ([13]; first compound 0.04 µM) of the same compound?
Answer: Its relative viability is 1.19.

Question: And the relative viability ([13]; first compound 0.1265 µM)?
Answer: Its relative viability is 1.16.

Question: What about the relative viability ([13]; first compound 0.4 µM) of the same compound?
Answer: The relative viability was 1.27.

Question: And the relative viability ([13]; first compound 1.265 µM)?
Answer: The relative viability was 1.22.

Question: What about the relative viability ([13]; first compound 4 µM) of the same compound?
Answer: Its relative viability is 1.19.

Question: What about the relative viability ([14]; first compound 0.04 µM) of the same compound?
Answer: The relative viability was 1.25.

Question: What about the relative viability ([14]; first compound 0.1265 µM) of the same compound?
Answer: The relative viability was 0.981.

Question: And the relative viability ([14]; first compound 1.265 µM)?
Answer: Its relative viability is 1.19.

Question: And the relative viability ([14]; first compound 4 µM)?
Answer: Its relative viability is 1.14.

Question: And the relative viability ([15]; first compound 0.04 µM)?
Answer: Its relative viability is 1.2.

Question: What about the relative viability ([15]; first compound 0.1265 µM) of the same compound?
Answer: Its relative viability is 1.

Question: What about the relative viability ([15]; first compound 0.4 µM) of the same compound?
Answer: Its relative viability is 1.01.

Question: What about the relative viability ([15]; first compound 1.265 µM) of the same compound?
Answer: The relative viability was 1.11.

Question: And the relative viability ([15]; first compound 4 µM)?
Answer: Its relative viability is 1.01.

Question: What about the relative viability ([16]; first compound 0.04 µM) of the same compound?
Answer: The relative viability was 0.965.

Question: What about the relative viability ([16]; first compound 0.1265 µM) of the same compound?
Answer: Its relative viability is 0.926.

Question: What about the relative viability ([16]; first compound 0.4 µM) of the same compound?
Answer: The relative viability was 0.96.

Question: What about the relative viability ([16]; first compound 1.265 µM) of the same compound?
Answer: The relative viability was 0.941.

Question: And the relative viability ([16]; first compound 4 µM)?
Answer: Its relative viability is 0.997.

Question: What about the relative viability ([17]; first compound 0.04 µM) of the same compound?
Answer: Its relative viability is 1.15.

Question: And the relative viability ([17]; first compound 0.1265 µM)?
Answer: Its relative viability is 0.96.

Question: And the relative viability ([17]; first compound 0.4 µM)?
Answer: The relative viability was 1.21.

Question: And the relative viability ([17]; first compound 1.265 µM)?
Answer: The relative viability was 0.972.

Question: What about the relative viability ([17]; first compound 4 µM) of the same compound?
Answer: Its relative viability is 1.09.

Question: And the relative viability ([18]; first compound 0.04 µM)?
Answer: The relative viability was 1.07.

Question: What about the relative viability ([18]; first compound 0.1265 µM) of the same compound?
Answer: Its relative viability is 0.976.

Question: What about the relative viability ([18]; first compound 0.4 µM) of the same compound?
Answer: Its relative viability is 0.991.

Question: And the relative viability ([18]; first compound 1.265 µM)?
Answer: Its relative viability is 0.931.

Question: And the relative viability ([18]; first compound 4 µM)?
Answer: The relative viability was 0.964.

— the supplement of paper PMC10307832
